Patent US20260294865A1, “AUTOPHAGY ACTIVATOR AND AUTOPHAGY ACTIVATION COMPOSITION” (MARUZEN PHARMACEUTICALS CO., LTD., priority 2023, published 2026)

System: HeLa cells stably expressing tfLC3
Experiment: tfLC3 test (autophagy activity, GFP/RFP ratio)
Format: cell-based
Conditions: for Ratio with respect to DMSO (GFP/RFP value, negative control taken as 1): final concentration 10 μM, 24 hours, HeLa cells stably expressing tfLC3, negative control 0.1% DMSO = 1, lower value = autophagy activation; for autophagy activation effect (in words): tfLC3 test, GFP/RFP ratio lower than negative control
Source text: An autophagy activation effect was examined by a tfLC3 test using the compound represented by the structural formula (1) (manufactured by INDOFINE Chemical Company) and the compound represented by the structural formula (2) (manufactured by INDOFINE Chemical Company) as test samples.
The tfLC3 test is a test performed by using tfLC3, in which LC3 that is an autophagosome marker protein is tandemly tagged with fluorescent proteins mRFP (RFP: Red Fluorescent Protein) and EGFP (GFP: Green Fluorescent Protein) (Autophagy 2007; 3:452-460. (PubMed: 17534139) DOI: 10.4161/auto. 4451).
In a cell undergoing autophagy, LC3 dots increase. However, LC3 is accumulated in a cell even if degradation due to autophagy is inhibited. Therefore, an increase of the LC3 dots alone cannot be used to conclude that autophagy is enhanced. Therefore, enhancement and inhibition of autophagy can be distinguished by examining the maturation process of autophagosomes (process of fusion of autophagosomes with lysosomes, or degradation in autolysosomes after fusion).
A fluorescent signal (green) of GFP of the tfLC3 is attenuated in the environment within the lysosomes, but RFP (red) is stable in the same environment. By using this characteristic of tfLC3 that fluorescence becomes red due to quenching of GFP in the process of maturing autophagosomes into autolysosomes, a GFP/RFP ratio within a cell is analyzed in the tfLC3 test to determine whether or not a test sample added to a medium has an autophagy activation capability.
HeLa cells stably expressing tfLC3 were seeded in a 96-well plate (Perkin Elmer #6055302 Cell Carrier 96 Ultra Black 96 well, Clear Bottom, with Lid), and the HeLA cells were cultured in a growth medium [Growth medium (DMEM (Sigma D6546) supplemented with 10% FBS and 4 mM L-glutamine] in a 5% CO2 incubator for 24 hours. Then, the medium was replaced with a medium to which a test sample was added (see Table 1 for the final concentration of the test sample), followed by culturing for 24 hours.
As a negative control, cells cultured in a medium including 0.1% dimethyl sulfoxide (DMSO) were used.
The GFP/RFP value (may be referred to as a “ratio with respect to DMSO” hereinafter) measured in the cells cultured in the test sample-added medium was calculated by determining the GFP/RFP value measured in the negative control as 1.
A test sample that has a lower value for the GFP/RFP ratio than the value for the GFP/RFP ratio of the negative control can be determined as having an autophagy activation effect.

What does the source list for `COc1cc(OC)c2c(=O)cc(-c3ccc(OC)c(OC)c3)oc2c1` [2-(3,4-dimethoxyphenyl)-5,7-dimethoxy-4H-chromen-4-one]?
Ratio with respect to DMSO (GFP/RFP value, negative control taken as 1): 0.847; autophagy activation effect (in words): had the autophagy activation effect

Which “Ratio with respect to DMSO (GFP/RFP value, negative control taken as 1)” value does the source give for `COc1ccc2c(=O)c(OC)c(-c3cc(OC)c(OC)c(OC)c3)oc2c1` [3,7-dimethoxy-2-(3,4,5-trimethoxyphenyl)-4H-chromen-4-one] here?
The value was 0.848.

And the “autophagy activation effect (in words)” value?
Its value is “had the autophagy activation effect”.
